Experimental data as given in US8057790B2, “Treatment of malodour” (Blis Technologies Limited, priority 2003, dated 2011).
Values joined by “and” are separate entries in the source; they are usually repeats but may differ in a detail not shown here. Equal values may be shown once.

Key:
halitosis subjects [1] = assay: Volatile sulphur compound (VSC) breath readings by halimeter in halitosis subjects; assay type: in vivo, human; conditions: three recalled subjects
Description: Sixty-five subjects were screened for volatile sulphur compound (VSC) breath readings by halimeter (Interscan Corp., Chatsworth, Calif.). VSC readings in persons with normal breath are typically in the range of 80-150 ppb. At levels of 200-300 ppb oral malodor is noticeable by an observer standing close to the patient. At 350-400 ppb, the odour is noticeable by an observer standing several feet away from the patient. Those subjects with breath scores of greater than 200 ppb on two separate visits were recruited for the study (n=13). Each signed an Informed Consent under a protocol approved by the Otago Ethics Committee. Subject's upon their second positive visit undertook a mechanical and chemical treatment of their mouths at the laboratory. This consisted of teeth and tongue brushing (2 minutes with Colgate Total™ [0.3% w/v triclosan], Colgate-Palmolive, N.Y., USA), tongue scraping for 30 seconds, brushing teeth and tongue with a CHX gel (Colgate, Australia) (Perioguard 2.0% CHX mouth gel, 2 minutes) and followed by a 30 second CHX rinse (0.2% CHX, 10% ethanol alcohol). This was followed at intervals by the sucking of a lozenge (BLIS Technologies Limited, Wellington, New Zealand) (commencing 2 hours after treatment and typically 2 hours apart, 4 times daily), each containing>1×10^9 colony forming units of streptomycin-resistant S. salivarius K12. […]

halitosis subjects [2] = assay: Organoleptic assessment of subjects' saliva; assay type: in vivo, human; conditions: three recalled subjects; 3-day CHX regimen only; seventh day; scale of 0-5
Description: Sixty-five subjects were screened for volatile sulphur compound (VSC) breath readings by halimeter (Interscan Corp., Chatsworth, Calif.). VSC readings in persons with normal breath are typically in the range of 80-150 ppb. At levels of 200-300 ppb oral malodor is noticeable by an observer standing close to the patient. At 350-400 ppb, the odour is noticeable by an observer standing several feet away from the patient. Those subjects with breath scores of greater than 200 ppb on two separate visits were recruited for the study (n=13). Each signed an Informed Consent under a protocol approved by the Otago Ethics Committee. Subject's upon their second positive visit undertook a mechanical and chemical treatment of their mouths at the laboratory. […]
Fresh saliva samples and tongue swabs were tested for N-benzoyl-DL-arginine-2-naphthylamide (BANA) hydrolysis (BANAMet ILC, Ann Arbor, Mich.), since positive scores by the BANA test have previously been associated with the presence of malodour-forming enzyme activities of certain oral bacterial species (1, 3). […] The samples were graded according to the same criteria used to assess breath air of halitosis sufferers (7), using a scale of 0-5, with 0 equating to no odour detected and 5 the most severe.

[H]/N=C(\N/C(=N/[H])NCCCCCCNC(=N)NC(=N)Nc1ccc(Cl)cc1)Nc1ccc(Cl)cc1 [CHX, chlorhexidine]
change in VSC, organoleptic or BANA readings after treatment with CHX only (halitosis subjects [1]): no decrease
Post CHX treatment Saliva organoleptic (halitosis subjects [2]): 2 and 3
